The text below walks through data of patent US20210147343A1 (priority 2018, published 2021).

What is called EC50 is the concentration that produces a half-maximal response. The term IC50 denotes the concentration at which inhibition is half-maximal.

The target in assay [1] is T1, mu opioid receptor (MOR) (Homo sapiens, UniProt P35372). In words: MOR GTPγS agonist assay. Also noted: host or cells: CHO-K1. It is filed as biochemical. As to conditions: membranes of CHO cells over-expressing MOR; SPA beads; read-out: MOR GTPγS EC50. The source says:
Membranes obtained from the stable cell lines over-expressing MOR were subjected to GTPγS assay using SPA beads (Perkin Elmer, Cat #RPNQ0001).

Assay [2] addresses T1, mu opioid receptor (MOR). Put plainly: MOR cAMP antagonist assay. It is filed as cell-based. Also noted: host or cells: CHO-K1. The source says:
MOR cAMP Antagonist Assay

Assay [3] has as its target T1, mu opioid receptor (MOR). Put plainly: MOR cAMP agonist assay.
Assay [4] addresses T2, kappa opioid receptor (KOR) (Homo sapiens, UniProt P41145).
T2 construct: host or cells: CHO-K1
Put plainly: cell-based. To be noted: after activation with dynorphin B. The source says: KOR cAMP Antagonist Assay

The mark [5] stands for this setting: kOR cAMP IC50, CHO-K1 cells expressing kOR.
The mark [6] stands for this setting: CHO-K1 cells expressing kOR, read-out: kOR cAMP IC50.
[7] abbreviates: read-out: mOR cAMP EC50, CHO-K1 cells stably expressing mOR, cAMP levels.

SMILES strings stand for the structures. Read-outs that look alike come from different tables or passages of the source.

T1 sequence (P35372 whole entry): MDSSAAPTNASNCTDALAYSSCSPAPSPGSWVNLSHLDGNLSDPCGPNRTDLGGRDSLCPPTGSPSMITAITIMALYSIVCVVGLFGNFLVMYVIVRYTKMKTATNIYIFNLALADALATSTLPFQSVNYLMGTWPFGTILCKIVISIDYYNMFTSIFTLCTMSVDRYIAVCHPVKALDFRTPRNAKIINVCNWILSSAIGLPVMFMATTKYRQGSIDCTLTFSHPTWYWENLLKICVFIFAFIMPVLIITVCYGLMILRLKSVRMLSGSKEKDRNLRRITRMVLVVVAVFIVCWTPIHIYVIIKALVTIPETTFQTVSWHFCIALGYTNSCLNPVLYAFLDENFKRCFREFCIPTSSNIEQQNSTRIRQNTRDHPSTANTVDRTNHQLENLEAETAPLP
T2 sequence (P41145 whole entry): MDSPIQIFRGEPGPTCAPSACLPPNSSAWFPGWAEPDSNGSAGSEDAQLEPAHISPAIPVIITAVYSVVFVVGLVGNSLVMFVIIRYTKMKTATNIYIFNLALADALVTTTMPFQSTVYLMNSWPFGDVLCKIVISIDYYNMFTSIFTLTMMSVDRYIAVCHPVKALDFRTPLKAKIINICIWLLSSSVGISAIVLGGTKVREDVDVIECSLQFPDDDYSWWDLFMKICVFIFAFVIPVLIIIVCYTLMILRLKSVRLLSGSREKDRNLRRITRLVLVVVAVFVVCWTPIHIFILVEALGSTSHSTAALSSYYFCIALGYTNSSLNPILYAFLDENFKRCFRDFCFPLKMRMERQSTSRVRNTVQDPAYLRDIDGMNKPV

In the case of `CC(CC(=O)NC[C@H](Cc1ccc2c(c1)CC(=O)N2)N(C)C)c1ccccc1` (stereo in doubt) [Compound A-23, (S)—N—((S)-2-(dimethylamino)-3-(2-oxoindolin-5-yl)propyl)-3-phenylbutanamide], the EC50 in assay [1] was under 100 nM. In addition, in assay [2] (read-out: MOR cAMP IC50, CHO-K1 cells expressing mOR, after activation with DAMGO at the EC80), the IC50 was under 100 nM.
Compound `CN(C)[C@H](CNC(=O)[C@@H]1C[C@]1(C)c1ccccc1)Cc1ccc(C(N)=O)cc1Cl` [Compound B-7, 3-chloro-4-((S)-2-(dimethylamino)-3-((1R,2S)-2-methyl-2-phenylcyclopropane-1-carboxamido)propyl)benzamide] yielded an EC50 in assay [3] of under 100 nM. In assay [4] (setting [5]), this compound came in with an IC50 of under 100 nM.
In turn, `Cc1cc(C(N)=O)cc(C)c1C[C@@H](CNC(=O)[C@@H]1C[C@@]1(C)c1ccccc1)N(C)C` [Compound B-8, 4-((S)-2-(dimethylamino)-3-((1R,2R)-2-methyl-2-phenylcyclopropane-1-carboxamido)propyl)-3,5-dimethylbenzamide] returned an EC50 in assay [3] of under 100 nM. Further, in assay [4] (setting [5]), the IC50 was 100 to 1000 nM.
As for `CN(C)[C@H](CNC(=O)[C@H]1CCCN1c1ccccc1)Cc1ccc(C(N)=O)cc1` [Compound B-9, (R)—N—((S)-3-(4-carbamoylphenyl)-2-(dimethylamino)propyl)-1-phenylpyrrolidine-2-carboxamide], the concentration giving a half-maximal response (EC50) in assay [3] was 100 to 1000 nM. In addition, the IC50 in assay [4] (setting [5]) is over 1000 nM.
`CN(C)[C@H](CNC(=O)[C@@H]1CCCN1c1ccccc1)Cc1ccc(C(N)=O)cc1` [Compound B-10, (S)—N—((S)-3-(4-carbamoylphenyl)-2-(dimethylamino)propyl)-1-phenylpyrrolidine-2-carboxamide] yielded an EC50 in assay [3] of 100 to 1000 nM. The same compound displayed a half-maximal inhibitory concentration (IC50) in assay [4] (setting [5]) of 100 to 1000 nM.
In the case of `CN(C)[C@H](CNC(=O)[C@H]1C[C@@]1(C)c1ccccc1)Cc1ccc(O)cc1` [Compound B-11, (1S,2R)—N—((S)-2-(dimethylamino)-3-(4-hydroxyphenyl)propyl)-2-methyl-2-phenylcyclopropane-1-carboxamide], the EC50 in assay [3] lay within 100 to 1000 nM. The same compound came in with an IC50 in assay [4] (setting [5]) of over 1000 nM.
The matching figures for `CN(C)[C@H](CNC(=O)[C@@H]1C[C@]1(C)c1ccccc1)Cc1ccc(O)cc1` [Compound B-12, (1R,2S)—N—((S)-2-(dimethylamino)-3-(4-hydroxyphenyl)propyl)-2-methyl-2-phenylcyclopropane-1-carboxamide]: over 1000 nM and under 100 nM.
Turning to `Cc1cc(O)cc(C)c1C[C@@H](CNC(=O)[C@@H]1C[C@@]1(C)c1ccccc1)N(C)C` [Compound B-13, (1R,2R)—N—((S)-2-(dimethylamino)-3-(4-hydroxy-2,6-dimethylphenyl)propyl)-2-methyl-2-phenylcyclopropane-1-carboxamide], the EC50 in assay [3] is under 100 nM. The IC50 in assay [4] (setting [5]) was under 100 nM.
Regarding `CN(C)[C@H](CNC(=O)[C@@H]1C[C@@]1(C)c1ccccc1)Cc1c(F)cc(O)cc1F` [Compound B-14, (1R,2R)—N—((S)-3-(2,6-difluoro-4-hydroxyphenyl)-2-(dimethylamino)propyl)-2-methyl-2-phenylcyclopropane-1-carboxamide], the EC50 in assay [3] is under 100 nM. The same compound returned an IC50 in assay [4] (setting [5]) of over 1000 nM.
`C[C@@]1(c2ccccc2)C[C@H]1C(=O)NC[C@@H]1Cc2ccc(O)cc2N1` [Compound B-16, (1R,2R)—N—(((S)-6-hydroxyindolin-2-yl)methyl)-2-methyl-2-phenylcyclopropane-1-carboxamide] registered an EC50 in assay [3] of over 1000 nM. Further, the IC50 in assay [4] (setting [6]) was over 1000 nM.
In assay [3], `CN(C)[C@H](CNC(=O)[C@@H]1C[C@H]1c1ccccc1)Cc1ccc(O)cc1` [Compound B-17, (1R,2R)—N—((S)-2-(dimethylamino)-3-(4-hydroxyphenyl)propyl)-2-phenylcyclopropane-1-carboxamide] showed an EC50 of under 100 nM. Besides, the IC50 in assay [4] (setting [5]) is 100 to 1000 nM.
As to `CN(C)[C@H](CNC(=O)[C@@H]1C[C@]1(C)c1ccccc1)Cc1ccc2[nH]ncc2c1` [Compound B-19, (1R,2S)—N—((S)-2-(dimethylamino)-3-(1H-indazol-5-yl)propyl)-2-methyl-2-phenylcyclopropane-1-carboxamide], the EC50 in assay [3] is under 100 nM. The IC50 in assay [4] (setting [5]) is over 1000 nM.
`CN(C)[C@H](CNC(=O)[C@@H]1C[C@@]1(C)c1ccccc1)Cc1ccc2[nH]ncc2c1` [Compound B-20, (1R,2R)—N—((S)-2-(dimethylamino)-3-(1H-indazol-5-yl)propyl)-2-methyl-2-phenylcyclopropane-1-carboxamide]: in assay [3], the EC50 is under 100 nM. This compound also had an IC50 in assay [4] (setting [5]) of over 1000 nM.
The compound `CN(C)[C@H](CNC(=O)[C@@H]1C[C@]1(C)c1ccccc1)Cc1ccc(C(=O)NC2CC2)c(F)c1` [Compound B-39, N-cyclopropyl-4-((S)-2-(dimethylamino)-3-((1R,2S)-2-methyl-2-phenylcyclopropane-1-carboxamido)propyl)-2-fluorobenzamide] showed an EC50 in assay [3] of under 100 nM. The compound further showed an IC50 in assay [4] (setting [5]) of over 1000 nM.
The matching figures for `Cc1cc(C[C@@H](CNC(=O)[C@@H]2C[C@]2(C)c2ccccc2)N(C)CC2CC2)ccc1O` [Compound B-40, (1R,2S)—N—((S)-2-((cyclopropylmethyl)(methyl)amino)-3-(4-hydroxy-3-methylphenyl)propyl)-2-methyl-2-phenylcyclopropane-1-carboxamide]: under 100 nM and over 1000 nM.
With `C[C@]1(c2ccccc2)C[C@H]1C(=O)NC[C@H](Cc1ccc2[nH]ncc2c1)N1CCOCC1` [Compound B-43, (1R,2S)—N—((S)-3-(2H-indazol-5-yl)-2-morpholinopropyl)-2-methyl-2-phenylcyclopropane-1-carboxamide], in assay [3], the EC50 was over 1000 nM. Besides, the IC50 in assay [4] (setting [6]) is over 1000 nM.
For `CNC(=O)c1ccc(C[C@@H](CNC(=O)[C@@H]2C[C@]2(C)c2ccccc2)N(C)C)cc1F` [Compound B-46, 4-((S)-2-(dimethylamino)-3-((1R,2S)-2-methyl-2-phenylcyclopropane-1-carboxamido)propyl)-2-fluoro-N-methylbenzamide], in assay [3], the EC50 is under 100 nM. This compound returned an IC50 in assay [4] (setting [5]) of over 1000 nM.
In the case of `CN(C)[C@H](CNC(=O)[C@@H]1C[C@]1(C)c1ccccc1)Cc1ccc2[nH]c(=O)oc2c1` [Compound B-49, (1R,2S)—N—((S)-2-(dimethylamino)-3-(2-oxo-2,3-dihydrobenzo[d]oxazol-6-yl)propyl)-2-methyl-2-phenylcyclopropane-1-carboxamide], the EC50 in assay [3] is under 100 nM. The same compound displayed an IC50 in assay [4] (setting [5]) of over 1000 nM.
For `CN(C)[C@H](CNC(=O)[C@@H]1C[C@]1(C)c1ccccc1)Cc1cc2cn[nH]c2cc1Cl` [Compound B-54, (1R,2S)—N—((S)-3-(6-chloro-2H-indazol-5-yl)-2-(dimethylamino)propyl)-2-methyl-2-phenylcyclopropane-1-carboxamide], the EC50 in assay [3] is under 100 nM. In addition, in assay [4] (setting [5]), the IC50 lay within 100 to 1000 nM.
Turning to `CN(C)[C@H](CNC(=O)[C@H]1C[C@@]1(C)c1ccccc1)Cc1ccc(O)cc1` [Compound B-58, (1S,2R)—N—((S)-2-(dimethylamino)-3-(4-hydroxyphenyl)propyl)-2-methyl-2-phenylcyclopropane-1-carboxamide], the EC50 in assay [3] (setting [7]) fell in the range of 100 to 1000 nM. Besides, in assay [4] (read-out: kOR cAMP IC50, CHO-K1 cells expressing kOR), the IC50 was over 1000 nM.
For the compound `CN(C)[C@H](CNC(=O)[C@@H]1C[C@@]1(C)c1ccccc1)Cc1ccc(C(N)=O)cc1Cl` [Compound B-60, 3-chloro-4-((S)-2-(dimethylamino)-3-((1R,2R)-2-methyl-2-phenylcyclopropane-1-carboxamido)propyl)benzamide], the EC50 in assay [3] (setting [7]) is under 100 nM. The compound also showed an IC50 in assay [4] (setting [5]) of under 100 nM.
The compound `CN(C)[C@H](CNC(=O)C1CC1(C)c1ccccc1)Cc1ccc(C(N)=O)cc1` (stereo partly drawn) [Compound B-61, 4-((2S)-2-(dimethylamino)-3-(2-methyl-2-phenylcyclopropane-1-carboxamido)propyl)benzamide] yielded an EC50 in assay [3] of under 100 nM. In assay [4] (setting [5]), this compound returned an IC50 of over 1000 nM.
For `CN(C)[C@H](CNC(=O)[C@@H]1C[C@@]1(C)c1ccccc1)Cc1ccc(O)cc1` [Compound B-62, (1R,2R)—N—((S)-2-(dimethylamino)-3-(4-hydroxyphenyl)propyl)-2-methyl-2-phenylcyclopropane-1-carboxamide], the EC50 in assay [3] was under 100 nM. In assay [4] (setting [5]), the IC50 is 100 to 1000 nM.
In assay [2], `CN(C)[C@H](CNC(=O)c1cc(F)c(Cl)c(F)c1)Cc1ccc(O)cc1Cl` [Compound C-1] registered an IC50 of under 100 nM.
On to `Cc1ccc(C(=O)NC[C@H](Cc2ccc(O)cc2Cl)N(C)C)cc1C` [Compound C-2, (S)—N-(3-(2-Chloro-4-hydroxyphenyl)-2-(dimethylamino)propyl)-3,4-dimethylbenzenamide], for which the IC50 in assay [2] was under 100 nM.
In turn, `CN(C)[C@H](CNC(=O)c1ccc(Cl)c(Cl)c1)Cc1ccc(O)cc1Cl` [Compound C-7, (S)-3,4-Dichloro-N-(3-(2-chloro-4-hydroxyphenyl)-2-(dimethylamino)propyl)benzamide] yielded an IC50 in assay [2] of under 100 nM.
As to `CN(C)[C@H](CNC(=O)c1ccc(Br)c(Cl)c1)Cc1ccc(O)cc1Cl` [Compound C-8, (S)-4-bromo-3-chloro-N-(3-(2-chloro-4-hydroxyphenyl)-2-(dimethylamino)propyl)benzamide], in assay [2], the IC50 was under 100 nM.
On the same count and under the same terms, in the case of `CC(=O)Oc1cc(C)c(C[C@@H](CNC(=O)c2ccc(Cl)c(Cl)c2)N(C)C)c(C)c1` [Compound C-56, (S)-4-(3-(3,4-dichlorobenzamido)-2-(dimethylamino)propyl)-3,5-dimethylphenyl acetate] it was under 100 nM.
